In publication PMC5794853 (Scientific Reports, 2018):

Key:
[1] = target: T1, SaRelP (Staphylococcus aureus, UniProt W8U368); assay: X-ray crystal structure; type: binding; settings: active site (ATP site), Mg2+, 5 mM AMPCPP, non-hydrolysable ATP analogue
T1 construct: gene ywaC; full length, N-terminal hexahistidine tag, pET24d(+), expressed in E. coli BL21(DE3), homotetramer

[2] = target: T2, BsRelQ (Bacillus subtilis, UniProt O31611, E113A); assay: stimulation of ppGpp synthesis, HPLC; type: biochemical; settings: allosteric activator, 200 µM; 5 mM ATP, 0.25 mM GDP/GTP, pH 7.5, 37 °C
T2 construct: gene yjbM; RelQ / SAS1, homotetramer

[3] = target: T3, BsRelQ (Bacillus subtilis, UniProt O31611); assay: stimulation of ppGpp synthesis, HPLC; type: biochemical; settings: allosteric activator, 0-250 µM; 5 mM ATP, pH 7.5, 20 mM MgCl2
T3 construct: gene yjbM; RelQ / SAS1, homotetramer
T3 sequence (O31611 1-211): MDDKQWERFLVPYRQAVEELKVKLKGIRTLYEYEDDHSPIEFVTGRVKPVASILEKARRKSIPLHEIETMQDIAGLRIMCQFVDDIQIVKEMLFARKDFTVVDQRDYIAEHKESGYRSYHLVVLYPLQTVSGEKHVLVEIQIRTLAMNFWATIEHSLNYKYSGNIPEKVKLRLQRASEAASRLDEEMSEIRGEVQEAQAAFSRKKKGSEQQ

[4] = target: T4, BsRelQ (Bacillus subtilis, UniProt O31611, E178A); assay: stimulation of ppGpp synthesis, HPLC; type: biochemical; settings: allosteric activator, 200 µM; 5 mM ATP, 0.25 mM GDP/GTP, pH 7.5, 37 °C
T4 construct: gene yjbM; RelQ / SAS1, homotetramer

[5] = target: T5, BsRelQ (Bacillus subtilis, UniProt O31611, H111A); assay: stimulation of ppGpp synthesis, HPLC; type: biochemical; settings: allosteric activator, 200 µM; 5 mM ATP, 0.25 mM GDP/GTP, pH 7.5, 37 °C
T5 construct: gene yjbM; RelQ / SAS1, homotetramer

[6] = target: T6, BsRelQ (Bacillus subtilis, UniProt O31611, Q174A); assay: stimulation of ppGpp synthesis, HPLC; type: biochemical; settings: allosteric activator, 200 µM; 5 mM ATP, 0.25 mM GDP/GTP, pH 7.5, 37 °C
T6 construct: gene yjbM; RelQ / SAS1, homotetramer

[7] = target: RelP from Staphylococcus aureus (SaRelP) (Staphylococcus aureus strain Newman); assay: crystal structure; apo SaRelP, 15 mg/ml, sitting drop at room temperature, 0.1 M CHES pH 9.5, 40% (v/v) PEG600; 2.25 Å; homotetramer
[8] = target: the molecule itself; assay: crystal structure; apo BsRelP, 10 mg/ml, sitting drop at room temperature, 0.1 M CHES pH 9.5, 30% (w/v) PEG 3000; 3.3 Å; homotetramer

T4 sequence (O31611 whole entry E178A): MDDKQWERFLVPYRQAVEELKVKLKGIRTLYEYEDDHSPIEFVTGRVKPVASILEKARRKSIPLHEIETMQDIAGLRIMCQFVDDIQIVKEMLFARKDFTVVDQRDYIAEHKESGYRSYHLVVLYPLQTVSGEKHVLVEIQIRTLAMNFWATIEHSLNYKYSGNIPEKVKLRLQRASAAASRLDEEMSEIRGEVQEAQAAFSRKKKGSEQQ
T5 sequence (O31611 whole entry H111A): as the sequence (O31611 whole entry E178A) above, with H111A, A178E counted along it
T6 sequence (O31611 whole entry Q174A): as the sequence (O31611 whole entry E178A) above, with Q174A, A178E counted along it
T2 sequence (O31611 whole entry E113A): as the sequence (O31611 whole entry E178A) above, with E113A, A178E counted along it

For `Nc1ncnc2c1ncn2[C@@H]1O[C@H](COP(=O)(O)CP(=O)(O)OP(=O)(O)O)[C@@H](O)[C@H]1O` [AMPCPP], which X-ray crystal structure [1] is on record?
Its X-ray crystal structure is “solve the structure of SaRelP in presence of AMPCPP”.

Which results are given for `Nc1nc2c(ncn2[C@@H]2O[C@H](COP(=O)(O)OP(=O)(O)OP(=O)(O)O)[C@@H](OP(=O)(O)OP(=O)(O)O)[C@H]2O)c(=O)[nH]1` [pppGpp]?
stimulation of ppGpp synthesis, HPLC [2]: Variation of His111 and Glu113 does not affect stimulation of BsRelQ; stimulation of ppGpp synthesis, HPLC [3]: determining the (p)ppGpp synthesis BsRelQ in presence of different concentrations of pppGpp; stimulation of ppGpp synthesis, HPLC [4]: upon replacement of Gln174 and Glu178 the pppGpp-stimulatory effect is decreased; stimulation of ppGpp synthesis, HPLC [5]: Variation of His111 and Glu113 does not affect stimulation of BsRelQ; stimulation of ppGpp synthesis, HPLC [6]: upon replacement of Gln174 and Glu178 the pppGpp-stimulatory effect is decreased

How did the stoichiometry N [7] turn out when “RelP from Staphylococcus aureus (SaRelP) (enzyme)” was run?
Its stoichiometry N is 4.

B1: RelP from Bacillus subtilis (BsRelP) (enzyme, Bacillus subtilis PY79)
chain: MDLSVTHMDDLKTVMEDWKNELLVYKFALDALDTKFSIISQEYNLIHGHNPIEHTKSRVKSFESIVNKLMRKGCEITTKEMKEHIHDIAGVRIICSFISDIYNVVNVLKQHEDLRIVKVKDYIQTPKPNGYRSLHLIIEMPVNLTNRVEYVKAEIQIRTIAMDFWASLEHKIYYKLNNDVPKQLTDELKEAAEIAHYLDEKMLGIKKEVD
notes: RelP (SAS2, YwaC), small (p)ppGpp synthetase of Bacillus subtilis PY79, gene ywaC, amplified from genomic DNA; The strep-tag was encoded by the forward primer; cloned into pET24d(+) at NcoI/XhoI; No tag cleavage is described; also called SAS2; YwaC; source: E. coli BL21 (DE3), purified (StrepTrap, SEC)
How did the “stoichiometry N” value [8] turn out when B1 was run?
The value was 4.
